The record followed here is patent US20170152245A1 (National Taiwan University, priority 2015, published 2017).

Usually pIC50 stands for the negative decadic logarithm of the IC50, by convention in mol/L.

pIC50: −log10 of the molar value.

The first test has as its system human platelet suspension. As to the kind of experiment: Collagen-induced platelet aggregation in human platelet suspension. It is filed as cell-based. The conditions noted are these: human platelet suspension; collagen 10 μg/ml; preliminary; compound concentration not given. Here is the method:
(§1) Human platelet suspension (PS) was prepared according to the method described previously. Briefly, blood sample, freshly obtained from healthy volunteers who had taken no medications during the preceding 2 weeks, was treated with acid citrate/dextrose (ACD) in a volume ratio of 9:1. After centrifugation at 120 g, 25° C. for 9 min, platelet-rich plasma was transferred into another plastic tube and incubated with heparin (6.4 U/ml) as well as prostaglandin E1 (1 μM). Platelets were spun down by centrifugation at 500 g, 25° C. for 8 min and subsequently washed two times with Tyrode solution (NaH2PO4 0.4 mM; NaCl 136.9 mM; KCl […]; NaHCO3 11.9 mM; CaCl2 2 mM; MgCl2 2.1 mM; glucose 11.1 mM; BSA 3.5 mg/ml; pH 7.35-7.4). The washed platelets were finally suspended in Tyrode's solution and the platelet count was adjusted to 3.75×10^8 platelets/ml. For platelet-rich plasma (PRP) preparation, whole blood was anticoagulated with 1/10 vol of sodium citrate (3.8%, w/v) and centrifuged at 150 g, 25° C. for 9 min.
(§2) Platelet aggregation was measured turbidimetrically with a Lumi-aggregometer (Payton Scientific) at 37° C. under stirring condition (900 rpm). Platelet suspensions were prewarmed to 37° C. for 2 min in a silicone-treated glass cuvette. Nstpbp5185 was added 3 min before the addition of platelet-aggregation inducers. The extent of platelet aggregation was determined by recording the increase of light transmission relative to that of control (maximal aggregation, as 100%) for 6 min after the addition of inducer. The final volume and platelet count for measuring platelet aggregation were 500 μl and 3×10^8/ml, respectively.
`COc1cccc(Cn2c(-c3ccc(C)o3)nc3ccccc32)c1` [Example 6]: the “% inhibition collagen” value worked out at 19.1%.
Regarding `Cc1ccc(Cn2c(-c3ccc(C)o3)nc3ccccc32)cc1` [Example 9, 1-(p-Methylbenzyl)-2-(5-methyl-2-furyl)benzimidazole], the “% inhibition collagen” value amounted to 1.1%.

A further test has as its system human platelet suspension. As to the kind of experiment: ADP-induced platelet aggregation in human platelet suspension. The settings on record: human platelet suspension; preliminary; compound concentration not given. It is filed as cell-based. Here is the method:
as §1, §2
As to `COc1cccc(Cn2c(-c3ccc(C)o3)nc3ccccc32)c1` [Example 6], the “% inhibition ADF” value is listed as 41.4 (n = 2) %.
As to `Cc1ccc(Cn2c(-c3ccc(C)o3)nc3ccccc32)cc1` [Example 9, 1-(p-Methylbenzyl)-2-(5-methyl-2-furyl)benzimidazole], the “% inhibition ADF” value was 17.4 (n = 3) %.

A further test deals with human platelet suspension. The test is described as follows: U46619-induced platelet aggregation in human platelet suspension. It is filed as cell-based. The conditions noted are these: Homo sapiens, Platelet, U46619-induced aggregation, platelet suspension; read-out: P.S(U46619) IC50. Here is the method:
as §1, §2
On to `Cc1ccc(Cn2c(-c3ccc(C)o3)nc3ccccc32)cc1` [Example 9, 1-(p-Methylbenzyl)-2-(5-methyl-2-furyl)benzimidazole], for which the negative logarithm of the IC50 (pIC50) was 5.33.
For the compound `Cc1ccc(Cn2c(-c3ccc(C)o3)nc3cc(Cl)ccc32)cc1` [Example 51b, 5-chloro-1-(4-methylbenzyl)-2-(5-methyl-2-furyl)benzimidazole], the pIC50 was 4.20.
On to `Cc1cccc(Cn2c(-c3ccc(C)o3)nc3cc(Cl)ccc32)c1` [Example 52a, 5-chloro-1-(3-methylbenzyl)-2-(5-methyl-2-furyl)benzimidazole], for which the pIC50 was 4.52.
As to `Cc1cccc(Cn2c(-c3ccc(C)o3)nc3ccc(Cl)cc32)c1` [Example 52b, 6-chloro-1-(3-methylbenzyl)-2-(5-methyl-2-furyl)benzimidazole], the pIC50 is 5.28.
`Cc1ccc(-c2nc3cc(Cl)ccc3n2Cc2ccccc2C)o1` [Example 53a, 5-chloro-1-(2-methylbenzyl)-2-(5-methyl-2-furyl)benzimidazole]: the negative-log IC50 (pIC50) is 5.22.
With `Cc1ccc(-c2nc3ccc(Cl)cc3n2Cc2ccccc2C)o1` [Example 53b, 6-chloro-1-(2-methylbenzyl)-2-(5-methyl-2-furyl)benzimidazole], the pIC50 was 5.49.
In the case of `Cc1ccc(-c2nc3cc(Cl)c(Cl)cc3[nH]2)o1` [Example 54, 5,6-dichloro-2-(5-methyl-2-furyl)benzimidazole], the negative-log IC50 (pIC50) is 5.29.
For the compound `Cc1ccc(-c2nc3cc(Cl)c(Cl)cc3n2Cc2ccccc2)o1` [Example 54a, 1-Benzyl-5,6-dichloro-2-(5-methyl-2-furyl)benzimidazole], the negative logarithm of the IC50 (pIC50) is 5.16.
In the case of `Cc1ccc(-c2nc3cc(Cl)c(Cl)cc3n2Cc2ccc([N+](=O)[O-])cc2)o1` [Example 55, 5,6-dichloro-1-(4-nitrobenzyl)-2-(5-methyl-2-furyl)benzimidazole], the negative logarithm of the IC50 (pIC50) was below 4.30.
Still for that read-out and setting: as for `Cc1ccc(-c2nc3cc(Cl)c(Cl)cc3n2Cc2cccc([N+](=O)[O-])c2)o1` [Example 56, 5,6-dichloro-1-(3-nitrobenzyl)-2-(5-methyl-2-furyl)benzimidazole], the figure is 4.57.
As to `Cc1ccc(-c2nc3cc(Cl)c(Cl)cc3n2Cc2ccccc2[N+](=O)[O-])o1` [Example 57, 5,6-dichloro-1-(2-nitrobenzyl)-2-(5-methyl-2-furyl)benzimidazole], the negative-log IC50 (pIC50) was below 4.30.
As to `Cc1ccc(-c2nc3cc(Cl)c(Cl)cc3n2Cc2ccc(Cl)cc2)o1` [Example 58, 5,6-Dichloro-1-(4-chlorobenzyl)-2-(5-methyl-2-furyl)benzimidazole], the pIC50 is 5.02.
Take `Cc1ccc(-c2nc3cc(Cl)c(Cl)cc3n2Cc2cccc(Cl)c2)o1` [Example 59, 5,6-dichloro-1-(3-chlorobenzyl)-2-(5-methyl-2-furyl)benzimidazole]: the pIC50 is 5.43.
Still for that read-out and setting: as for `Cc1ccc(-c2nc3cc(Cl)c(Cl)cc3n2Cc2ccccc2Cl)o1` [Example 60, 5,6-dichloro-1-(2-chlorobenzyl)-2-(5-methyl-2-furyl)benzimidazole], the figure is 4.37; as for `COc1ccc(Cn2c(-c3ccc(C)o3)nc3cc(Cl)c(Cl)cc32)cc1` [Example 61, 5,6-dichloro-1-(4-methoxybenzyl)-2-(5-methyl-2-furyl)benzimidazole], 4.57; as for `COc1cccc(Cn2c(-c3ccc(C)o3)nc3cc(Cl)c(Cl)cc32)c1` [Example 62, 5,6-Dichloro-1-(3-methoxybenzyl)-2-(5-methyl-2-furyl)benzimidazole], 5.05.
For `Cc1ccc(-c2nc3cc(Cl)c(Cl)cc3n2Cc2ccc(F)cc2)o1` [Example 63, 5,6-dichloro-1-(4-fluorobenzyl)-2-(5-methyl-2-furyl)benzimidazole], the pIC50 was 5.57.
For the compound `Cc1ccc(-c2nc3cc(Cl)c(Cl)cc3n2Cc2cccc(F)c2)o1` [Example 64, 5,6-dichloro-1-(3-fluorobenzyl)-2-(5-methyl-2-furyl)benzimidazole], the pIC50 was 5.76.
Take `Cc1ccc(-c2nc3cc(Cl)c(Cl)cc3n2Cc2ccccc2F)o1` [Example 65, 5,6-dichloro-1-(2-fluorobenzyl)-2-(5-methyl-2-furyl) benzimidazole]: the negative logarithm of the IC50 (pIC50) was 5.08.
The same measure, in the same setting: the result for `Cc1ccc(Cn2c(-c3ccc(C)o3)nc3cc(Cl)c(Cl)cc32)cc1` [Example 66, 5,6-dichloro-1-(4-methylbenzyl)-2-(5-methyl-2-furyl)benzimidazole] reads 4.40; that for `Cc1cccc(Cn2c(-c3ccc(C)o3)nc3cc(Cl)c(Cl)cc32)c1` [Example 67, 5,6-dichloro-1-(3-methylbenzyl)-2-(5-methyl-2-furyl)benzimidazole], 5.19; that for `Cc1ccc(-c2nc3cc(Cl)c(Cl)cc3n2Cc2ccccc2C)o1` [Example 68, 5,6-dichloro-1-(2-methylbenzyl)-2-(5-methyl-2-furyl)benzimidazole], 5.24.
As for `Cc1ccc(-c2nc3ccc(C(=O)c4ccccc4)cc3[nH]2)o1` [Example 69, 6-benzoyl-2-(5-methyl-2-furyl)benzimidazole], the pIC50 is below 4.30.
With `Cc1ccc(-c2nc3ccc(C(=O)c4ccccc4)cc3n2Cc2ccccc2)o1` [Example 69a, 1-Benzyl-6-benzoyl-2-(5-methyl-2-furyl)benzimidazole], the negative-log IC50 (pIC50) is 4.76.
For the compound `Cc1ccc(-c2nc3ccc(C(=O)c4ccccc4)cc3n2Cc2ccc(Cl)cc2)o1` [Example 73, 6-Benzoyl-1-(4-chlorobenzyl)-2-(5-methyl-2-furyl)benzimidazole], the pIC50 is below 4.30.
Turning to `Cc1ccc(-c2nc3ccc(C(=O)c4ccccc4)cc3n2Cc2cccc(Cl)c2)o1` [Example 74, 6-benzoyl-1-(3-chlorobenzyl)-2-(5-methyl-2-furyl)benzimidazole], the pIC50 was 4.72.
As for `COc1ccc(Cn2c(-c3ccc(C)o3)nc3ccc(C(=O)c4ccccc4)cc32)cc1` [Example 76, 6-benzoyl-1-(4-methoxybenzyl)-2-(5-methyl-2-furyl)benzimidazole], the negative-log IC50 (pIC50) was below 4.30.
`COc1cccc(Cn2c(-c3ccc(C)o3)nc3ccc(C(=O)c4ccccc4)cc32)c1` [Example 77, 6-benzoyl-1-(3-methoxybenzyl)-2-(5-methyl-2-furyl)benzimidazole]: the pIC50 is below 4.30.
As to `Cc1ccc(-c2nc3ccc(C(=O)c4ccccc4)cc3n2Cc2ccc(F)cc2)o1` [Example 78, 6-benzoyl-1-(4-fluorobenzyl)-2-(5-methyl-2-furyl)benzimidazole], the pIC50 was 4.59.
In the case of `Cc1ccc(-c2nc3ccc(C(=O)c4ccccc4)cc3n2Cc2cccc(F)c2)o1` [Example 79, 6-Benzoyl-1-(3-fluorobenzyl)-2-(5-methyl-2-furyl)benzimidazole], the pIC50 is below 4.30.
With `Cc1ccc(-c2nc3ccc(C(=O)c4ccccc4)cc3n2Cc2ccccc2F)o1` [Example 80, 6-benzoyl-1-(2-fluorobenzyl)-2-(5-methyl-2-furyl)benzimidazole], the negative logarithm of the IC50 (pIC50) was below 4.30.
As for `Cc1ccc(Cn2c(-c3ccc(C)o3)nc3ccc(C(=O)c4ccccc4)cc32)cc1` [Example 81, 6-benzoyl-1-(4-methylbenzyl)-2-(5-methyl-2-furyl)benzimidazole], the negative logarithm of the IC50 (pIC50) is below 4.30.
`Cc1ccc(-c2nc3ccc(C(=O)c4ccccc4)cc3n2Cc2ccccc2C)o1` [Example 83, 6-benzoyl-1-(2-methylbenzyl)-2-(5-methyl-2-furyl)benzimidazole]: the pIC50 was below 4.30.

The test is the same for the next values; noted with them: U46619 1 μM; indomethacin concentration not given.
In the case of `COc1ccc2c(c1)c(CC(=O)O)c(C)n2C(=O)c1ccc(Cl)cc1` [indomethacin, reference compound], the “effect on U46619-induced platelet aggregation” value is “without effects”.

A further test relates to mice carotid artery. The test is described as follows: FeCl3-induced thrombus formation in mice carotid artery. The class given is in vivo. The settings on record: heparin 10 U kg^−1 or aspirin 40 μg g^−1 i.v. Here is the method:
FIG. 14 The antithrombotic activity of nstpbp5185 in FeCl3-induced thrombi formation in mice carotid artery. (A) Mice were intravenously administered with Heparin (10 or 100 U kg^−1), Aspirin (40 or 80 μg g^−1), or different doses of nstpbp5185 (B). After 5 min, FeCl3 injury was induced by a filter paper saturated with ferric chloride solution (10%). After removal of the paper, carotid blood flow (ml min^−1) was monitored continuously until thromboembolism formation or for 60 min. (C) Mice were orally administered with different doses of Aspirin and nstpbp5185 (D). Both drugs were suspended in 1% CMC. Blood flow monitoring were recorded used analyzed Labchart software (AD instruments). Data are presented as the mean±SEM (n≧3). **P<0.01 and ***P<0.001 as compared with the vehicle control (DMSO).
Mice were intravenously or orally administered with different doses of nstpbp5185.
Take heparin: the “time to FeCl3-induced occlusion” value is recorded as “about 10 min”.

The same test, now with this note: heparin 100 U kg^−1 or aspirin 80 μg g^−1 i.v.
As to heparin, the FeCl3-induced thrombus formation result was “blocked”.
